Assay results published in patent US20090299056A1 (priority 2005, published 2009).

Tests used:
[1] = solution in water containing 0.1 g per 1 ml
stability, expiry date = assay type: physicochemical; conditions: identified by State Food and Drug Administration
dissolving rate = assay type: physicochemical
listeria = conditions: cited from earlier work
klebsiella pneumoniae = conditions: cited from earlier work
bacillus anthracis = conditions: cited from earlier work
Typhoid bacillus = conditions: cited from earlier work
Haemophilus influenzae = conditions: cited from earlier work
[2] = tested on: PPNG (Penicillinase-Producing Neisseria gonorrheae); conditions: cited from earlier work
Gram-positive coccus = conditions: except enterococcus, methicillin-resistant staphylococcus; cited from earlier work
neisseria = conditions: cited from earlier work
[3] = tested on: streptococcus haemolytica; conditions: cited from earlier work
shigella = conditions: cited from earlier work
Streptococcus pneumoniae = conditions: cited from earlier work
acinetobacter = conditions: cited from earlier work
other enterobacteriaceae = conditions: cited from earlier work
actistaphylococcus = conditions: cited from earlier work
partial E.coli = conditions: cited from earlier work
[4] = tested on: Corynebacterium diphtheriae; conditions: cited from earlier work
P. aeruginosa = conditions: cited from earlier work
proteus mirabilis = conditions: cited from earlier work

What does the source list for `Cc1nnc(SCC2=C(C(=O)[O-])N3C(=O)[C@@H](NC(=O)Cn4cnnn4)[C@H]3SC2)s1.O.O.O.O.O.[Na+]` [cefazolin sodium pentahydrate]?
pH value [1]: 4.8-6.3; expiry date (stability, expiry date): 24 months; dissolving rate (dissolving rate): rapid dissolving rate

Which sensitivity (listeria) does the source give for `Cc1nnc(SCC2=C(C(=O)O)N3C(=O)[C@@H](NC(=O)Cn4cnnn4)[C@H]3SC2)s1` [Cefazolin sodium] here?
The sensitivity was “very sensitive”.

What about the antibacterial activity (klebsiella pneumoniae) of the same molecule?
The antibacterial activity was “good antibacterial activity”.

What about the sensitivity (bacillus anthracis) of the same molecule?
The sensitivity was “very sensitive”.

What about the sensitivity (Typhoid bacillus) of the same molecule?
The sensitivity was “sensitive”.

And the sensitivity (Haemophilus influenzae)?
The sensitivity was “intermediate sensitivity”.

What about the sensitivity [2] of the same molecule?
Its sensitivity is “resistant”.

And the antibacterial activity (Gram-positive coccus)?
The antibacterial activity was “excellent antibacterial activity”.

And the sensitivity (neisseria)?
The sensitivity was “sensitive”.

And the sensitivity [3]?
The sensitivity was “highly sensitive”.

And the sensitivity (shigella)?
Its sensitivity is “sensitive”.

And the sensitivity (Streptococcus pneumoniae)?
Its sensitivity is “highly sensitive”.

And the sensitivity (acinetobacter)?
The sensitivity was “resistant”.

What about the sensitivity (other enterobacteriaceae) of the same molecule?
Its sensitivity is “resistant”.

And the antibacterial activity (actistaphylococcus)?
Its antibacterial activity is “low antibacterial activity”.

What about the antibacterial activity (partial E.coli) of the same molecule?
The antibacterial activity was “good antibacterial activity”.

And the sensitivity [4]?
Its sensitivity is “very sensitive”.

And the sensitivity (P. aeruginosa)?
The sensitivity was “resistant”.

What about the antibacterial activity (proteus mirabilis) of the same molecule?
The antibacterial activity was “good antibacterial activity”.
